In patent US20250186463A1, “ABIRATERONE DECANOATE PRODRUGS AND USE IN THERAPY” (PROPELLA THERAPEUTICS, INC., priority 2022, published 2025):

How the values were obtained:
[1] = Phase 1/2a study: safety and tolerability; type: in vivo, human
Source text: At each dose cohort, 3 to 4 patients will be enrolled. If none of the patients experience a dose-limiting toxicity (DLT) in the first 28 days (the DLT period) the dose will be escalated in the next cohort. A DLT will be defined as any of the following using on the Common Terminology Criteria for Adverse Events (CTCAE) criteria v5.0 regardless of attribution to the study drug unless it is clearly due to the patient's underlying disease or extraneous causes:
Safety Analysis: Adverse events will be summarized by severity, seriousness, and relationship to study treatments. Laboratory data, vital signs, PFTs and ECGs will be compared to baseline values.

[2] = Phase 1/2a study: plasma pharmacokinetics; type: in vivo, human; settings: cohort 3 (720 mg), patient 08-1301, all values
Protocol: (§1) Formulations and dosing regimen: The formulation used in the study (abiraterone decanoate for intramuscular [i.m.] injection) is a solution formulation of abiraterone decanoate at a concentration of 180 mg/mL and will be provided as a 10 mL vial containing 990 mg of abiraterone decanoate in 5.5 mL of solution. See further details of the formulations in Example 2 (for each milliliter: Abiraterone Decanoate, about 180 mg/mL; Benzyl Alcohol, about 100 mg/mL; Benzyl Benzoate, about 200 mg/mL; and Corn oil, q.s. to 1 mL). Abiraterone Decanoate will be administered as an i.m. injection every 84 days (±3 days). Dose escalation will proceed with a modified Fibonacci sequence. Based on emerging data, intermediate doses may be evaluated.
Pharmacokinetic results: the partial results from pharmacokinetic analysis for cohorts 1, 2, 3, 4, and 5 (180 mg, 360 mg, 720 mg, 1260 mg, and 1800 mg abiraterone decanoate, respectively) are shown in FIGS. 4A-4E. […] And for abiraterone decanoate, minimal increase in AbiDec for 08-1301 was observed which declined to 0 ng/ml thereafter.

serum corticosterone = experiment: Phase 1/2a study: serum corticosterone; type: in vivo, human
Protocol: This is a Phase 1/2a, Open-label, Multicenter Study of Intramuscular Abiraterone Decanoate Depot in Patients with Advanced Prostate Cancer.
as §1
Study Design: This is a Phase 1/2a, Open-label, Multicenter Study of Intramuscular Abiraterone Decanoate Depot in Patients with Advanced Prostate Cancer. In Phase 1, all patients will receive i.m. Abiraterone Decanoate depot in 84-day treatment cycles combined with daily oral prednisone or dexamethasone. In Phase 2a, patients will be randomized 1:1 and treated with i.m. Abiraterone Decanoate depot in 84-day treatment cycles in combination with dexamethasone (Arm A) or abiraterone acetate daily+prednisone (Arm B). In both Phases, patients will undergo scheduled periodic assessments of serum testosterone levels. Participants may continue treatment until they meet any discontinuation criteria outlined in the protocol.
Pharmacodynamic Analysis: Determination of Prostate Specific Antigen (PSA), serum testosterone, dehydroepiandrosterone (DHEA), dehydroepiandrosterone sulfate (DHEA-S), androstenedione, dihydrotestosterone (DHT), progesterone, cortisol, adrenocorticotropic hormone (ACTH), corticosterone, 11-dexoycorticosterone (11-DOC) and 11-deoxycortisol.
Based on the available data, the recommended dose for Phase 2 is about 1260 mg abiraterone decanoate once every three months (12 weeks). All cohorts 1 and 2 in this clinical study were treated with prednisone, 5 mg orally once or twice daily; and all cohorts 3-5 were treated with dexamethasone, 0.5 mg orally once daily. The results shown herein for these cohorts should be understood accordingly.
See also Table 3B below. […] See also FIG. 11B for the absolute serum progesterone levels for cohorts 4 and 5, with the LLOQ being 1.59 nM. It should be noted that the maximum serum progesterone level observed for cohorts 1-3 is 2.5 nM. FIGS. 3F and 3G show the serum 11-deoxycorticosterone and corticosterone response in cohorts 3, 4, and 5, the trend is similar to that observed for progesterone levels above. See a summary shown in the Table 3C below for the first cycle.

[3] = Animal studies of intramuscular abiraterone decanoate: liver toxicity; type: in vivo; settings: intramuscular administration, tested doses

plasma abiraterone values [2]: below the LLOQ
Structure (SMILES): CCCCCCCCCC(=O)O[C@H]1CC[C@@]2(C)C(=CC[C@@H]3[C@@H]2CC[C@]2(C)C(c4cccnc4)=CC[C@@H]32)C1 [abiraterone decanoate]
increases in upstream steroids from CYP17A1 hydroxylase, compared with Zytiga ([1]; Phase 1 study): far less than observed with Zytiga | safety issues relating to mineralocorticoid excess ([1]; Phase 1 study, to date): no safety issues relating to mineralocorticoid excess | safety profile ([1]; all cohorts 1-5): excellent | tolerability in human subjects ([1]; in vivo): generally well tolerated | Corticosterone Changes during cycle 1, Percent (%) (serum corticosterone; 720 mg (N = 4), Day 14): 48% | Corticosterone Changes during cycle 1, Percent (%) (serum corticosterone; 720 mg (N = 4), Day 28): 27% | Corticosterone Changes during cycle 1, Percent (%) (serum corticosterone; 720 mg (N = 4), Day 56): 9% | Corticosterone Changes during cycle 1, Percent (%) (serum corticosterone; 720 mg (N = 4), Day 84): −33% | Corticosterone Changes during cycle 1, Percent (%) (serum corticosterone; 1,260 mg (N = 6), Day 14): 184% | Corticosterone Changes during cycle 1, Percent (%) (serum corticosterone; 1,260 mg (N = 6), Day 28): 490% | Corticosterone Changes during cycle 1, Percent (%) (serum corticosterone; 1,260 mg (N = 6), Day 56): 19% | Corticosterone Changes during cycle 1, Percent (%) (serum corticosterone; 1,260 mg (N = 6), Day 84): 32% | Corticosterone Changes during cycle 1, Percent (%) (serum corticosterone; 1,800 mg (N = 8), Day 14): 455% | Corticosterone Changes during cycle 1, Percent (%) (serum corticosterone; 1,800 mg (N = 8), Day 28): 259% | Corticosterone Changes during cycle 1, Percent (%) (serum corticosterone; 1,800 mg (N = 8), Day 56): 54% | Corticosterone Changes during cycle 1, Percent (%) (serum corticosterone; 1,800 mg (N = 8), Day 84): 109% | liver toxicity [3]: no liver toxicity was observed
